Measured values from ChEMBL document CHEMBL1135235, “Structure-activity relationships of oxime neurokinin antagonists: oxime modifications” (Bioorg Med Chem Lett, 2002).

Tests used:
[1] = Area under curve was determined at a dose 30 mpk administered orally.; format: ADME, organism-based; conditions: rat, in vivo, po, 30 mg/kg
[2] = biological target: T1, Substance-P receptor (Homo sapiens, UniProt P25103); assay: Binding affinity against recombinant human tachykinin receptor 1 in CHO cells using [3H]-Sar SP as a radioligand; format: cell-based
[3] = biological target: T2, Substance-K receptor (Homo sapiens, UniProt P21452); assay: (§1) Binding affinity against recombinant human tachykinin receptor 2 in CHO cells using [3H]NKA as a radioligand; format: cell-based
T2 sequence (P21452 whole entry): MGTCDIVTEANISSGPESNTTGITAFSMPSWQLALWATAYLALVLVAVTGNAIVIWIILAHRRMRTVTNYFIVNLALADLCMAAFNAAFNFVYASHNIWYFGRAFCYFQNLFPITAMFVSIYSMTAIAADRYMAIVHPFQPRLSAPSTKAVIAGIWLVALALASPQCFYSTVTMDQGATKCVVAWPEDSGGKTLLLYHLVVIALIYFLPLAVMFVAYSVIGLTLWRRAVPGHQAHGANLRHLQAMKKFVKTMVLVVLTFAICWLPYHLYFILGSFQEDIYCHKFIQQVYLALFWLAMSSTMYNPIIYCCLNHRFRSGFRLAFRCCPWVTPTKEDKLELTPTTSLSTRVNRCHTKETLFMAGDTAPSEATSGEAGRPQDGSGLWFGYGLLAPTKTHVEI

[4] = biological target: T3, Substance-K receptor (Cavia porcellus) (UniProt Q64077); assay: Inhibitory activity against Tachykinin receptor 2 evaluated as beta-ala-NKA (410) induced bronchospasm inhibition after a oral dose of 10 mpk in guinea pig; format: functional
T3 sequence (whole entry): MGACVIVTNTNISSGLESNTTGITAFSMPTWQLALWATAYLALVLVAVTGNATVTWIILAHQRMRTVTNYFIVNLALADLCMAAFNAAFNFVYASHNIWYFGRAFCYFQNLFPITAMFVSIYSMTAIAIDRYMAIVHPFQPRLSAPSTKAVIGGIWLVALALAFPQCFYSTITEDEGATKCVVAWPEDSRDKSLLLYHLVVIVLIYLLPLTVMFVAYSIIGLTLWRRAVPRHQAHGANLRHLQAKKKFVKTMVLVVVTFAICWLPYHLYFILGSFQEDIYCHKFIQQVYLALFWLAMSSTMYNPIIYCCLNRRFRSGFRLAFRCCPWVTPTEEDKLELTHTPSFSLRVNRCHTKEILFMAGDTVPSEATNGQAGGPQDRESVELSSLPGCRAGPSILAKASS

[5] = biological target: T4, Substance-K receptor (Homo sapiens) (UniProt P21452); assay: as §1; format: cell-based; design: concentration or dose not given beside the values; conditions: concentration not given here
T4 sequence (whole entry): T2 sequence (P21452 whole entry)

[6] = biological target: T1, Substance-P receptor; assay: The compound was evaluated for the binding affinity against recombinant human Tachykinin receptor 1 in CHO cells using [3H]-Sar SP as a radioligand; format: cell-based; conditions: concentration not given here

T1 sequence (P25103 whole entry): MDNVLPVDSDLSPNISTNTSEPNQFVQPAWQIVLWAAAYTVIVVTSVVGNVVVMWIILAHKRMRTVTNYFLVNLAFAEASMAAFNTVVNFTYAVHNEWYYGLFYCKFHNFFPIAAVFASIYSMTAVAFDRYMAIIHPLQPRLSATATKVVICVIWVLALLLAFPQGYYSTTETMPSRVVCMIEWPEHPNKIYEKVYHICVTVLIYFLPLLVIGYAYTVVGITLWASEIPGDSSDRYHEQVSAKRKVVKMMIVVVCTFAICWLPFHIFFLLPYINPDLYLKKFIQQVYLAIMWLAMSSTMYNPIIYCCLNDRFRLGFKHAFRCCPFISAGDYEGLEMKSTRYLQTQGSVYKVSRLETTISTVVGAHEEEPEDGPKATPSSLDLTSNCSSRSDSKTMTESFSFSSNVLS

Compound	AUC [1] [µM·h]	Ki [2] [nM]	Ki [3] [nM]	inhibition [4] [%]	inhibition [5] [%]	inhibition [6] [%]
CC(C)(C)O/N=C(\COCc1cc(C(F)(F)F)cc(C(F)(F)F)c1)C(CCN1CCC(O)(c2ccccc2)CC1)c1ccc(Cl)c(Cl)c1 (stereo not drawn)	–	–	–	–	28	46
O=C(O)CO/N=C(\COCc1cc(C(F)(F)F)cc(C(F)(F)F)c1)C(CCN1CCC(O)(c2ccccc2)CC1)c1ccc(Cl)c(Cl)c1 (stereo not drawn)	–	8	–	–	20	–
CC(C)CO/N=C(\COCc1cc(C(F)(F)F)cc(C(F)(F)F)c1)C(CCN1CCC(O)(c2ccccc2)CC1)c1ccc(Cl)c(Cl)c1 (stereo not drawn)	–	–	–	–	11	43
CN(C)CCO/N=C(\COCc1cc(C(F)(F)F)cc(C(F)(F)F)c1)C(CCN1CCC(O)(c2ccccc2)CC1)c1ccc(Cl)c(Cl)c1 (stereo not drawn)	–	103	–	–	11	–

Continued, values first:

AUC [1] [µM·h]	Ki [2] [nM]	Ki [3] [nM]	inhibition [4] [%]	inhibition [5] [%]	inhibition [6] [%]	Compound
3	0.7	0.7	94	–	–	CN(C/C(=N\OCC(=N)NO)C(CCN1CCC(N2CCCCC2=O)CC1)c1ccc(Cl)c(Cl)c1)C(=O)c1cc(Cl)cc(Cl)c1 (stereo not drawn)
–	33	–	–	35	–	CO/C=C(\COCc1cc(C(F)(F)F)cc(C(F)(F)F)c1)C(CCN1CCC(O)(c2ccccc2)CC1)c1ccc(Cl)c(Cl)c1 (stereo not drawn)
–	–	–	–	23	32	OC1(c2ccccc2)CCN(CCC(/C(COCc2cc(C(F)(F)F)cc(C(F)(F)F)c2)=N/Oc2ccccc2)c2ccc(Cl)c(Cl)c2)CC1 (stereo not drawn)
–	57	–	–	28	–	CC/C=C(\COCc1cc(C(F)(F)F)cc(C(F)(F)F)c1)C(CCN1CCC(O)(c2ccccc2)CC1)c1ccc(Cl)c(Cl)c1 (stereo not drawn)
